Data published in patent US11766468B2, “Method of treating prostate cancer with GnRH antagonist” (priority 2012, dated 2023).
Marks after values point to notes of the source that are not given here. Square brackets hold non-standard residues; d marks the D form. Peptide text beside a SMILES is read from it. * marks the point of attachment. dPhe(4-NHCONH2) = NC(=O)Nc1ccc(C[C@@H](N)C(=O)O)cc1; Dihydroorotyl(S) = O=C1C[C@@H](C(=O)*)NC(=O)N1; dPhe(4-Cl) = N[C@H](Cc1ccc(Cl)cc1)C(=O)O; Phe(4-NH2) = Nc1ccc(C[C@H](N)C(=O)O)cc1; d2Nal = N[C@H](Cc1ccc2ccccc2c1)C(=O)O; Lys(iPr) = CC(C)NCCCC[C@H](N)C(=O)O; d3Pal = N[C@H](Cc1cccnc1)C(=O)O

Assay: CS21 safety: treatment-emergent adverse events (MedDRA SOC/PT), crude incidence, also by subgroup
Assay type: in vivo
Details: pooled degarelix
Experimental: The safety variables for this study were assessed on the following: the frequency and severity of adverse events (AEs); the presence of clinically significant changes in laboratory parameters (clinical chemistry, hematology and urinalysis); changes in electrocardiograms (ECGs) and vital signs; changes detected by physical examination; and body weight.
An AE was therefore any unfavorable or unintended sign (including an abnormal laboratory finding), symptom or disease temporally associated with the use of the product, whether or not related to the IMP.
An adverse drug reaction (ADR) was defined as an AE evaluated by the investigator as being probably or possibly related to treatment with the IMP.
AEs were graded according to the National Cancer Institute (NCI) Common Terminology Criteria for Adverse Events (CTCAE). In accordance with the CTCAE criteria, AEs were rated on a five-point scale corresponding to mild, moderate, severe, life-threatening or disabling and death. For those AEs not described in the CTCAE, a separate five-point rating scale was used for rating of the intensity of AEs as follows below:
Safety parameters were evaluated for all patients included in the ITT analysis set, comprising all 610 randomized patients who received at least one dose of study medication. All safety tables include four columns: the three treatment groups described separately, and the pooled degarelix group.
Adverse events were regarded as ‘treatment-emergent’ if they occurred in the time interval from initial dosing to end-of-study. Adverse events were considered ‘pre-treatment’ if they occurred between screening and the initial injections of IMP. As described above, all AEs were classified according to MedDRA (version 10.0) system organ class (SOC), sorted alphabetically, and by preferred term (PT), in decreasing frequency of occurrence. Treatment-emergent AEs were expressed in terms of intensity (using NCI CTCAE) and relationship to study drug.
Using the results from the summary of clinical efficacy (SCE) and summary of clinical safety (SCS) findings, different patient subgroups were analyzed. Subgroup distinguishers included race (white, black, and other), age (<65 years, […], and >75 years), weight (<70 kg, ≥70−<90 kg, and ≥90 kg), body mass index (BMI) (≤20, >20 to 30, and >30 kg/m^2)), region (North-America, Western Europe, Central and Eastern Europe and Other), and stage of prostate cancer (e.g., localized, locally advanced, and metastatic).

Compound: CC(=O)N[C@H](Cc1ccc2ccccc2c1)C(=O)N[C@H](Cc1ccc(Cl)cc1)C(=O)N[C@H](Cc1cccnc1)C(=O)N[C@@H](CO)C(=O)N[C@@H](Cc1ccc(NC(=O)[C@@H]2CC(=O)NC(=O)N2)cc1)C(=O)N[C@H](Cc1ccc(NC(N)=O)cc1)C(=O)N[C@@H](CC(C)C)C(=O)N[C@@H](CCCCNC(C)C)C(=O)N1CCC[C@H]1C(=O)N[C@H](C)C(N)=O [Degarelix, D-Alaninamide, N-acetyl-3-(2-naphthalenyl)-D-alanyl-4-chloro-D-phenylalanyl-3-(3-pyridinyl)-D-alanyl-L-seryl-4-[[[(4S)-hexahydro-2,6-dioxo-4-pyrimidinyl]carbonyl]amino]-L phenylalanyl-4-[(aminocarbonyl)amino]-D-phenylalanyl-L leucyl-N6-(1-methylethyl)-L-lysyl-L-prolyl] (Ac-[d2Nal][dPhe(4-Cl)][d3Pal]S[Phe(4-NH2)](Dihydroorotyl(S))[dPhe(4-NHCONH2)]L[Lys(iPr)]P[dA]-NH2)
- Gastrointestinal disorders, % of patients (Age <65): (9%)*
- Infections and infestations, % of patients (Age <65): (16%)
- Musculoskeletal and connective tissue disorders, % of patients (Age <65): (9%)**
- Renal and urinary disorders, % of patients (Age <65): (10%)*
- Subjects with adverse events, % (Age <65): (75%)
- Urinary retention, % of patients (Age <65): (1%)*
- Depression, % of patients (PCA = Localised): (<1%)*
- Erectile dysfunction, % of patients (PCA = Localised): (<1%)*
- Gynaecomastia, % of patients (PCA = Localised): (<1%)
- Infections and infestations, % of patients (PCA = Localised): (17%)
- Musculoskeletal and connective tissue disorders, % of patients (PCA = Localised): (16%)
- Neoplasms benign, malignant and unspecified, % of patients (PCA = Localised): (3%)
- Oedema peripheral, % of patients (PCA = Localised): (2%)*
- Psychiatric disorders, % of patients (PCA = Localised): (9%)
- Reproductive system and breast disorders, % of patients (PCA = Localised): (4%)
- Subjects with adverse events, % (PCA = Localised): (81%)
- Upper respiratory tract infection, % of patients (PCA = Localised): (3%)
- Urinary tract infection, % of patients (PCA = Localised): (2%)*
- Arthralgia, % of patients (PCA = Locally advanced): (2%)**
- Back pain, % of patients (PCA = Locally advanced): ( 5%)
- Cardiac disorders, % of patients (PCA = Locally advanced): (3%)
- Diarrhoea, % of patients (PCA = Locally advanced): (<1%)*
- Dyspnoea, N patients (PCA = Locally advanced): 0
- Fall, % of patients (PCA = Locally advanced): (<1%)
- Gastrointestinal disorders, % of patients (PCA = Locally advanced): (13%)
- Infections and infestations, % of patients (PCA = Locally advanced): (13%)
- Injury, poisoning and procedural complications, % of patients (PCA = Locally advanced): (2%)**
- Muscle strain, % of patients (PCA = Locally advanced): (<1%)
- Musculoskeletal and connective tissue disorders, % of patients (PCA = Locally advanced): (10%)
- Respiratory, thoracic and mediastinal disorders, % of patients (PCA = Locally advanced): ( 7%)
- Subjects with adverse events, % (PCA = Locally advanced): (74%)
- Urinary tract infection, % of patients (PCA = Locally advanced): (<1%)**
- Arthralgia, % of patients (PCA = Metastatic): ( 5%)
- Back pain, % of patients (PCA = Metastatic): ( 5%)
- Gastrointestinal disorders, % of patients (PCA = Metastatic): (15%)
- Musculoskeletal and connective tissue disorders, % of patients (PCA = Metastatic): (21%)
- Pain in extremity, % of patients (PCA = Metastatic): ( 1%)
- Subjects with adverse events, % (PCA = Metastatic): (81%)
- Erectile dysfunction, % of patients (Race = Other): (2%)*
- Infections and infestations, % of patients (Race = Other): (33%)
- Reproductive system and breast disorders, % of patients (Race = Other): (10%)
- Subjects with adverse events, % (Race = Other): (95%)
- Urinary tract infection, % of patients (Race = Other): (5%)*
- Cardiac disorders, % of patients (Race = White): (10%)
- Chest pain, % of patients (Race = White): (<1%)*
- Cystitis noninfective, N patients (Race = White): 0
- Deep vein thrombosis, N patients (Race = White): 0
- Infections and infestations, % of patients (Race = White): (19%)
- Investigations, % of patients (Race = White): (26%)
- Musculoskeletal and connective tissue disorders, % of patients (Race = White): (15%)**
- Musculoskeletal stiffness, N patients (Race = White): 0
- Myocardial ischaemia, % of patients (Race = White): (<1%)*
- Oedema peripheral, % of patients (Race = White): (1%)*
- Orthostatic hypotension, N patients (Race = White): 0
- Renal and urinary disorders, % of patients (Race = White): (14%)
- Subjects with adverse events, % (Race = White): (79%)
- Upper respiratory tract infection, % of patients (Race = White): (<1%)*
- Urinary retention, % of patients (Race = White): ( 1%)*
- Vascular disorders, % of patients (Race = White): (31%)
- Cardiac disorders, % of patients (Weight 70-<90 kg): ( 5%)*
- Erectile dysfunction, % of patients (Weight 70-<90 kg): (<1%)*
- Nervous system disorders, % of patients (Weight 70-<90 kg): (12%)
- Reproductive system and breast disorders, % of patients (Weight 70-<90 kg): ( 5%)
- Subjects with adverse events, % (Weight 70-<90 kg): (81%)
- Arthralgia, % of patients (Weight <70 kg): ( 3%)**
- Musculoskeletal and connective tissue disorders, % of patients (Weight <70 kg): (17%)*
- Pelvic pain, N patients (Weight <70 kg): 0
- Reproductive system and breast disorders, % of patients (Weight <70 kg): (4%)*
- Subjects with adverse events, % (Weight <70 kg): (78%)
- Arthralgia, % of patients (Weight >=90 kg): ( 5%)
- Back pain, % of patients (Weight >=90 kg): ( 5%)*
- Infections and infestations, % of patients (Weight >=90 kg): (26%)
- Musculoskeletal and connective tissue disorders, % of patients (Weight >=90 kg): (15%)*
- Neoplasms benign, malignant and unspecified, % of patients (Weight >=90 kg): (1%)*
- Subjects with adverse events, % (Weight >=90 kg): (84%)
- Urinary tract infection, % of patients (Weight >=90 kg): ( 3%)*
